Experimental data reported in publication PMC6430112 (Xenobiotica; the fate of foreign compounds in biological …, 2018).
Where “and” joins values, the source holds several entries; their conditions need not be identical. Identical values can stand only once.

Key:
CYP1A1 = target: T1, CYP1A1 (Homo sapiens, UniProt P04798); experiment: Oxidation by purified CYP1A1 in reconstituted monooxygenase system, LC-MS/MS; assay type: in vitro ADME; conditions: substrate flavanone
T1 sequence (P04798 1-512): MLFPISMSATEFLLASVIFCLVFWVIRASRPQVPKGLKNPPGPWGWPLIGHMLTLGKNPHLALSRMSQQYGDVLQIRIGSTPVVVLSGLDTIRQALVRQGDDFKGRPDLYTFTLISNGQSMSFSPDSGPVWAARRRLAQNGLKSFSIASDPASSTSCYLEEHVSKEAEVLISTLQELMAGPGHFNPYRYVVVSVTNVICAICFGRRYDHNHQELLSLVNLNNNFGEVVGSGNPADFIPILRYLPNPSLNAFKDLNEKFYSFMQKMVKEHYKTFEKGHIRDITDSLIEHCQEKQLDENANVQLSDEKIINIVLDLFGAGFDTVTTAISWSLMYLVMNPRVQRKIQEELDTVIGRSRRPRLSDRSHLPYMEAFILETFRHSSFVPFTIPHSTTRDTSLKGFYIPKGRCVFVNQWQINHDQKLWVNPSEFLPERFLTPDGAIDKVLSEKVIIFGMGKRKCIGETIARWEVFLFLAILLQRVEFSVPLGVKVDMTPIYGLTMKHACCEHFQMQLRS

CYP1A2 = target: T2, CYP1A2 (Homo sapiens, UniProt P05177); experiment: Oxidation by purified CYP1A2 in reconstituted monooxygenase system, LC-MS/MS; assay type: in vitro ADME; conditions: substrate flavanone
T2 sequence (P05177 1-516): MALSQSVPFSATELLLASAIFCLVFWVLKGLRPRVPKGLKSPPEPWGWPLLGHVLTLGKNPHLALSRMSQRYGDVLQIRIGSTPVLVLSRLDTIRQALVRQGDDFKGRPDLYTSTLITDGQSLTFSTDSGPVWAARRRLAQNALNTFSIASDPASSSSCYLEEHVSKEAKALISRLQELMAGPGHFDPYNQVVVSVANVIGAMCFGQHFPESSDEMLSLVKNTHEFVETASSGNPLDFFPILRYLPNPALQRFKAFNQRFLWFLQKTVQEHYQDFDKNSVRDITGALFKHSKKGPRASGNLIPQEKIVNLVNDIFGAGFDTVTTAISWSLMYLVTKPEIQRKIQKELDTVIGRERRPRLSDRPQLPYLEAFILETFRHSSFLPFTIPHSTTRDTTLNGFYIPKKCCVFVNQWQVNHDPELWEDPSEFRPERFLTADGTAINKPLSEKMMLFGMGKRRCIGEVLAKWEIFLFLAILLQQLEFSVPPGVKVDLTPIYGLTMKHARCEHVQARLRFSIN

CYP1B1 = target: T3, CYP1B1 (Homo sapiens, UniProt Q16678); experiment: Oxidation by purified CYP1B1 in reconstituted monooxygenase system, LC-MS/MS; assay type: in vitro ADME; conditions: substrate flavanone
T3 sequence (Q16678 1-543): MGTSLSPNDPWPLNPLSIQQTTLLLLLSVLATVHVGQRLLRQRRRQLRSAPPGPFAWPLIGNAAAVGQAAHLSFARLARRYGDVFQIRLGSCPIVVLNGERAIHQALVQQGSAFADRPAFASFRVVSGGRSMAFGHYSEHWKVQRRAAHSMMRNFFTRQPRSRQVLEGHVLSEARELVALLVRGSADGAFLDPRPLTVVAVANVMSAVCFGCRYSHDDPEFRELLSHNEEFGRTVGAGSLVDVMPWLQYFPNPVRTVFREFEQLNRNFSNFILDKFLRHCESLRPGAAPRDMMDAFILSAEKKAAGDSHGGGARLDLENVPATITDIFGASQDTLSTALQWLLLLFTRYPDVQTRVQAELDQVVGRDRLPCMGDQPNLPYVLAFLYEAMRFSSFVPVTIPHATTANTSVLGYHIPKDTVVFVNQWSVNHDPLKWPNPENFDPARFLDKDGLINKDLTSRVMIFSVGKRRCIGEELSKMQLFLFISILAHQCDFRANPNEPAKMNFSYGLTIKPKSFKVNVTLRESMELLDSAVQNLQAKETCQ

CYP2A6 = target: T4, CYP2A6 (Homo sapiens, UniProt P11509); experiment: Oxidation by purified CYP2A6 in reconstituted monooxygenase system, LC-MS/MS; assay type: in vitro ADME; conditions: substrate flavanone
T4 sequence (P11509 1-494): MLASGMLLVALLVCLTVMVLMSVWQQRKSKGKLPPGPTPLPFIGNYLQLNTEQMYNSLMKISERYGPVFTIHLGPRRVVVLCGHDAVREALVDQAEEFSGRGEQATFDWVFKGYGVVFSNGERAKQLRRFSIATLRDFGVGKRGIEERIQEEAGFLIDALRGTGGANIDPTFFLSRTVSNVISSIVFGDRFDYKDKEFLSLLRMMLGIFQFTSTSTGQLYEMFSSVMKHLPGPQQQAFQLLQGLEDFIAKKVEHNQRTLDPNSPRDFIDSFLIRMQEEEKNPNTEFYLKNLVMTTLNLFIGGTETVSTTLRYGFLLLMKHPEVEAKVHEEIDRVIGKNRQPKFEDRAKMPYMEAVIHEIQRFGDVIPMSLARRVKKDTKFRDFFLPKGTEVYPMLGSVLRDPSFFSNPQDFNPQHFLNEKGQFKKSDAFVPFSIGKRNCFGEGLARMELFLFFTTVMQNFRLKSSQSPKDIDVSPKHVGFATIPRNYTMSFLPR

CYP2A13 = target: T5, CYP2A13 (Homo sapiens, UniProt Q16696); experiment: Oxidation by purified CYP2A13 in reconstituted monooxygenase system, LC-MS/MS; assay type: in vitro ADME; conditions: substrate flavanone
T5 sequence (Q16696 1-494): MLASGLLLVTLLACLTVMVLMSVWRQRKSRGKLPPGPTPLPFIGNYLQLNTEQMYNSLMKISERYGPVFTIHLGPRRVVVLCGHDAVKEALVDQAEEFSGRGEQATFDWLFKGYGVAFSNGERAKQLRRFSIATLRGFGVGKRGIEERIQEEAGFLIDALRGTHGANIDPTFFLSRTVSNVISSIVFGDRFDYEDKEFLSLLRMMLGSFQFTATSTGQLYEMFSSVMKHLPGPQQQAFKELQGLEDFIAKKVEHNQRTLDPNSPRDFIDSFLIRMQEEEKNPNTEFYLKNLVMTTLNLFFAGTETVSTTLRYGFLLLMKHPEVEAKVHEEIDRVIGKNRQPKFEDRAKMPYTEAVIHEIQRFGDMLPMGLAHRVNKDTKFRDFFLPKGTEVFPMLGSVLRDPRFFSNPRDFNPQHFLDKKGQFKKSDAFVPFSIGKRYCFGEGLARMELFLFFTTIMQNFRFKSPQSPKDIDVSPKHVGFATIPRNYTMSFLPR

CYP2C9 = CYP2C9 (Homo sapiens, UniProt P11712); experiment: Oxidation by purified CYP2C9 in reconstituted monooxygenase system, LC-MS/MS; assay type: in vitro ADME; conditions: substrate flavanone
CYP3A4 = CYP3A4 (Homo sapiens, UniProt P08684); experiment: Oxidation by purified CYP3A4 in reconstituted monooxygenase system, LC-MS/MS; assay type: in vitro ADME; conditions: substrate flavanone
wild-type CYP2A6 = conditions: substrate flavanone, ref Uno et al. (2013; 2015); cited from earlier work
rat liver microsomes = conditions: ref Kagawa et al. (2004); cited from earlier work

Chain of CYP3A4 (P08684 whole entry): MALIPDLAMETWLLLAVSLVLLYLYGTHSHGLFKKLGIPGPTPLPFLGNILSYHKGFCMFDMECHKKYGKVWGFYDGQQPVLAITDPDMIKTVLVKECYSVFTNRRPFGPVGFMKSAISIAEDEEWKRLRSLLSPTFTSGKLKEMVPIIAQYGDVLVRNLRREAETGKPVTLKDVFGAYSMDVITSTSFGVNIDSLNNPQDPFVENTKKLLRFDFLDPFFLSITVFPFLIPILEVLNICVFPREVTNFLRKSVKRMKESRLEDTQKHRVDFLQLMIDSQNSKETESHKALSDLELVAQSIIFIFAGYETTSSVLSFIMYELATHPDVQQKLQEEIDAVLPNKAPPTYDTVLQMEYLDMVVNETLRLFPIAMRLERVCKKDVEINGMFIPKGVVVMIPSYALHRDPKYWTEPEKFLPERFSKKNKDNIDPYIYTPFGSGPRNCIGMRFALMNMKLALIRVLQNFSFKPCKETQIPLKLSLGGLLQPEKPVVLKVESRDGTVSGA
Chain of CYP2C9 (P11712 whole entry): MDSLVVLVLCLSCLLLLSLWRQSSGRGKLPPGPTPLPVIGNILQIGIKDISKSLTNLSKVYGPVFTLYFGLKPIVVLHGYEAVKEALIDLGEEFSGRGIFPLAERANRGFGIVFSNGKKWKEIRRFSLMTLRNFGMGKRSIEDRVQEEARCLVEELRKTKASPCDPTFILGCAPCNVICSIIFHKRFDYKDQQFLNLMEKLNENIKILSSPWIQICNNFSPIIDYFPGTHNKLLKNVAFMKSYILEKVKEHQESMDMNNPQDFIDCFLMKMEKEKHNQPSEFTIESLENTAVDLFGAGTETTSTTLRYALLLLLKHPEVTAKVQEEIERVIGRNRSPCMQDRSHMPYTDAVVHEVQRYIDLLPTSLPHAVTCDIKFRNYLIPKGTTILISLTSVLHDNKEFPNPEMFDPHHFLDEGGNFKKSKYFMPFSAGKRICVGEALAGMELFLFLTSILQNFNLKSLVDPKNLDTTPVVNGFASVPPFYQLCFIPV

Formation of flavone and hydroxylated products: 2´-OHFva (CYP1A1): 0.008 ± 0.004 nmol/min/nmol P450
Formation of flavone and hydroxylated products: 3´-OHFva (CYP1A1): 0.004 ± 0.002 nmol/min/nmol P450
Formation of flavone and hydroxylated products: 4’´-OHFva (CYP1A1): 0.074 ± 0.002 nmol/min/nmol P450
Formation of flavone and hydroxylated products: 6OHF (CYP1A1): 0.002 ± 0.001 nmol/min/nmol P450
Formation of flavone and hydroxylated products: 6OHFva (CYP1A1): 0.058 ± 0.008 nmol/min/nmol P450
Formation of flavone and hydroxylated products: 7OHF (CYP1A1): <0.001 nmol/min/nmol P450
Formation of flavone and hydroxylated products: 7OHFva (CYP1A1): 0.007 ± 0.003 nmol/min/nmol P450
Formation of flavone and hydroxylated products: Flavone (CYP1A1): 0.053 ± 0.003 nmol/min/nmol P450
Formation of flavone and hydroxylated products: 2´-OHFva (CYP1A2): 0.074 ± 0.012 nmol/min/nmol P450
Formation of flavone and hydroxylated products: 3´-OHFva (CYP1A2): 0.117 ± 0.023 nmol/min/nmol P450
Formation of flavone and hydroxylated products: 4’´-OHFva (CYP1A2): 0.33 ± 0.05 nmol/min/nmol P450
Formation of flavone and hydroxylated products: 6OHF (CYP1A2): <0.001 nmol/min/nmol P450
Formation of flavone and hydroxylated products: 6OHFva (CYP1A2): 0.19 ± 0.02 nmol/min/nmol P450
Formation of flavone and hydroxylated products: 7OHF (CYP1A2): 0.002 ± 0.002 nmol/min/nmol P450
Formation of flavone and hydroxylated products: 7OHFva (CYP1A2): 0.009 ± 0.001 nmol/min/nmol P450
Formation of flavone and hydroxylated products: Flavone (CYP1A2): 0.008 ± 0.001 nmol/min/nmol P450
Formation of flavone and hydroxylated products: 2´-OHFva (CYP1B1): 0.046 ± 0.009 nmol/min/nmol P450
Formation of flavone and hydroxylated products: 3´-OHFva (CYP1B1): 0.013 ± 0.002 nmol/min/nmol P450
Formation of flavone and hydroxylated products: 4’´-OHFva (CYP1B1): 0.19 ± 0.04 nmol/min/nmol P450
Formation of flavone and hydroxylated products: 6OHF (CYP1B1): 0.002 ± 0.001 nmol/min/nmol P450
Formation of flavone and hydroxylated products: 6OHFva (CYP1B1): 0.33 ± 0.05 nmol/min/nmol P450
Formation of flavone and hydroxylated products: 7OHF (CYP1B1): <0.001 nmol/min/nmol P450
Formation of flavone and hydroxylated products: 7OHFva (CYP1B1): 0.003 ± 0.001 nmol/min/nmol P450
Formation of flavone and hydroxylated products: Flavone (CYP1B1): 0.046 ± 0.002 nmol/min/nmol P450
Formation of flavone and hydroxylated products: 2´-OHFva (CYP2A6; CYP2A6): 4.76 ± 0.32 nmol/min/nmol P450
Formation of flavone and hydroxylated products: 3´-OHFva (CYP2A6; CYP2A6): 0.031 ± 0.003 nmol/min/nmol P450
Formation of flavone and hydroxylated products: 4’´-OHFva (CYP2A6; CYP2A6): 0.20 ± 0.01 nmol/min/nmol P450
Formation of flavone and hydroxylated products: 6OHF (CYP2A6; CYP2A6): 0.003 ± 0.001 nmol/min/nmol P450
Formation of flavone and hydroxylated products: 6OHFva (CYP2A6; CYP2A6): 1.29 ± 0.08 nmol/min/nmol P450
Formation of flavone and hydroxylated products: 7OHF (CYP2A6; CYP2A6): <0.001 nmol/min/nmol P450
Formation of flavone and hydroxylated products: 7OHFva (CYP2A6; CYP2A6): <0.001 nmol/min/nmol P450
Formation of flavone and hydroxylated products: Flavone (CYP2A6; CYP2A6): 0.72 ± 0.06 nmol/min/nmol P450
Turnover number of 2´OHFva formation (CYP2A6; CYP2A6): 4.8 nmol/min/nmol CYP2A6
Turnover number of 6OHFva formation (CYP2A6; CYP2A6): 1.3 nmol/min/nmol CYP2A6
Turnover number of flavone formation (CYP2A6; CYP2A6): 0.72 nmol/min/nmol CYP2A6
Turnover rate of 2´-hydroxyflavanone formation (CYP2A6; CYP2A6): 4.8 min⁻¹ and 4.76 min⁻¹
Turnover rate of 6-hydroxyflavanone formation (CYP2A6; CYP2A6): 1.3 min⁻¹ and 1.29 min⁻¹
Turnover rate of flavone formation (CYP2A6; CYP2A6): 0.72 min⁻¹
Flavone formation turnover rate by CYP2A6 relative to CYP2A13 (CYP2A6; CYP2A6 higher than CYP2A13): ~ 3 fold
Formation of flavone and hydroxylated products: 2´-OHFva (CYP2A13): 0.027 ± 0.002 nmol/min/nmol P450
Formation of flavone and hydroxylated products: 3´-OHFva (CYP2A13): 0.011 ± 0.004 nmol/min/nmol P450
Formation of flavone and hydroxylated products: 4’´-OHFva (CYP2A13): 0.013 ± 0.001 nmol/min/nmol P450
Formation of flavone and hydroxylated products: 6OHF (CYP2A13): 0.004 ± 0.001 nmol/min/nmol P450
Formation of flavone and hydroxylated products: 6OHFva (CYP2A13): 0.17 ± 0.01 nmol/min/nmol P450
Formation of flavone and hydroxylated products: 7OHF (CYP2A13): <0.001 nmol/min/nmol P450
Formation of flavone and hydroxylated products: 7OHFva (CYP2A13): 0.005 ± 0.001 nmol/min/nmol P450
Formation of flavone and hydroxylated products: Flavone (CYP2A13): 0.29 ± 0.02 nmol/min/nmol P450
Turnover rate of flavone formation (CYP2A13): 0.29 min⁻¹
Formation of flavone and hydroxylated products: 2´-OHFva (CYP2C9): 0.012 ± 0.001 nmol/min/nmol P450
Formation of flavone and hydroxylated products: 3´-OHFva (CYP2C9): 0.003± 0.001 nmol/min/nmol P450
Formation of flavone and hydroxylated products: 4’´-OHFva (CYP2C9): 0.040± 0.001 nmol/min/nmol P450
Formation of flavone and hydroxylated products: 6OHF (CYP2C9): <0.001 nmol/min/nmol P450
Formation of flavone and hydroxylated products: 6OHFva (CYP2C9): 0.091± 0.001 nmol/min/nmol P450
Formation of flavone and hydroxylated products: 7OHF (CYP2C9): <0.001 nmol/min/nmol P450
Formation of flavone and hydroxylated products: 7OHFva (CYP2C9): <0.001 nmol/min/nmol P450
Formation of flavone and hydroxylated products: Flavone (CYP2C9): 0.009 ± 0.002 nmol/min/nmol P450
Formation of flavone and hydroxylated products: 2´-OHFva (CYP3A4): <0.001 nmol/min/nmol P450
Formation of flavone and hydroxylated products: 3´-OHFva (CYP3A4): <0.001 nmol/min/nmol P450
Formation of flavone and hydroxylated products: 4’´-OHFva (CYP3A4): <0.001 nmol/min/nmol P450
Formation of flavone and hydroxylated products: 6OHF (CYP3A4): <0.001 nmol/min/nmol P450
Formation of flavone and hydroxylated products: 6OHFva (CYP3A4): <0.001 nmol/min/nmol P450
Formation of flavone and hydroxylated products: 7OHF (CYP3A4): <0.001 nmol/min/nmol P450
Formation of flavone and hydroxylated products: 7OHFva (CYP3A4): <0.001 nmol/min/nmol P450
Formation of flavone and hydroxylated products: Flavone (CYP3A4): 0.057 ± 0.011 nmol/min/nmol P450
Structure (SMILES): O=C1CC(c2ccccc2)Oc2ccccc21 (stereo not drawn) [flavanone]
Turnover number of formation of 2´-hydroxyflavanone (wild-type CYP2A6): 0.32 min⁻¹
Kinetic deuterium isotope effect for conversion of flavanone to flavone (rat liver microsomes): 1.5
